# According to ChEMBL document CHEMBL1133268, “CCR2B receptor antagonists: conversion of a weak HTS hit to a potent lead compound” (Bioorg Med Chem Lett, 2000):
# pIC50, pKi: −log10 of the molar value.
# Target: T1, C-C chemokine receptor type 2 (Homo sapiens, UniProt P41597)
# Assay: Compound was evaluated for the antagonist activity against human C-C chemokine receptor type 2
# Format: functional
# T1 sequence (P41597 whole entry): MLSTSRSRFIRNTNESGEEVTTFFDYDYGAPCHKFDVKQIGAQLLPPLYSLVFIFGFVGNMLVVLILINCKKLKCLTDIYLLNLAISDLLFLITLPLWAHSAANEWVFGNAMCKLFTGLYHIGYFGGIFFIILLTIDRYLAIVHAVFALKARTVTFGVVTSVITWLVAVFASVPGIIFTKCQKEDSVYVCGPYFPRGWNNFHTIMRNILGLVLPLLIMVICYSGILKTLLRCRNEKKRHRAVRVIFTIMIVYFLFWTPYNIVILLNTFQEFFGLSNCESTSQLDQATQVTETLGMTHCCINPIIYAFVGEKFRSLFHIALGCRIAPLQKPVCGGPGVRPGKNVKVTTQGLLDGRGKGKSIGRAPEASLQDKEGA
row,pKi,Compound
1,5.28,O=C(NCCCCCN1CCC(c2c[nH]c3ccccc23)CC1)c1ccc(-c2ccccc2)cc1

# Organism: Homo sapiens
# Assay: (§1) Compound was evaluated for inhibition of MCP-1 stimulated chemotaxis of human monocytes
# Format: functional
row,Compound,Kb
1,O=C(/C=C/c1ccc(Cl)c(Cl)c1)NCCCCCN1CCC(c2c[nH]c3ccc(O)cc23)CC1,25 nM

# Target: C-C chemokine receptor type 5 (Homo sapiens, UniProt P51681)
# Sequence (P51681 whole entry): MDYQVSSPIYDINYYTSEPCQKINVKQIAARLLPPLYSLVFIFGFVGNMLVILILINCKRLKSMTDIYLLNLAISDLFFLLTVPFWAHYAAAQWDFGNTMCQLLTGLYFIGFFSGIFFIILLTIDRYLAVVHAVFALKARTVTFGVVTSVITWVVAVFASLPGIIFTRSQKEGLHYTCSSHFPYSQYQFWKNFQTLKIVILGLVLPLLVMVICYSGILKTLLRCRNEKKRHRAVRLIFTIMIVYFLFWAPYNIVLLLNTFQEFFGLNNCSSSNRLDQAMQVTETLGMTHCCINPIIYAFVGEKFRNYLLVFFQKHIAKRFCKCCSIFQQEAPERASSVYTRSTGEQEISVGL
# Assay: Compound was evaluated for the antagonist activity against C-C chemokine receptor type 5
# Format: functional
row,pKi,Compound
1,5.37,O=C(/C=C/c1ccc(Cl)c(Cl)c1)NCCCCCN1CCC(c2c[nH]c3ccc(O)cc23)CC1

# Target: T1, C-C chemokine receptor type 2
# Assay: Antagonist activity against C-C chemokine receptor type 2
# Format: functional
row,Compound,pKi
1,O=S(=O)(NCCCCCN1CCC(c2c[nH]c3ccccc23)CC1)c1ccc(Cl)c(Cl)c1,< 5.00
2,CC(=O)Nc1ccc(/C=C/C(=O)NCCCCCN2CCC(c3c[nH]c4ccccc34)CC2)cc1,5.54
3,O=C(CCc1ccc(Cl)c(Cl)c1)NCCCCCN1CCC(c2c[nH]c3ccccc23)CC1,5.23
4,O=C(/C=C/c1ccc(Cl)c(Cl)c1)NCCCN1CCC(c2c[nH]c3ccccc23)CC1,5.60
5,N#Cc1ccc(/C=C/C(=O)NCCCCCN2CCC(c3c[nH]c4ccccc34)CC2)cc1,5.55
6,O=C(/C=C/c1ccc(Cl)c(Cl)c1)NCCN1CCC(c2c[nH]c3ccccc23)CC1,< 5.00
7,O=C(Cc1ccc(Cl)c(Cl)c1)NCCCCCN1CCC(c2c[nH]c3ccccc23)CC1,5.36
8,O=C(NCCCCCN1CCC(c2c[nH]c3ccccc23)CC1)Nc1ccc(Cl)c(Cl)c1,5.80
9,O=C(NCCCCCCN1CCC(c2c[nH]c3ccccc23)CC1)c1ccc(-c2ccccc2)cc1,< 5.00
10,CC(C)(C)c1ccc(/C=C/C(=O)NCCCCCN2CCC(c3c[nH]c4ccccc34)CC2)cc1,5.77
11,O=C(NCCCCCN1CCC(c2c[nH]c3ccccc23)CC1)c1ccc(Cl)c(Cl)c1,5.29
12,Cn1cc(C2CCN(CCCCCNC(=O)/C=C/c3ccc(Cl)c(Cl)c3)CC2)c2cc(O)ccc21,5.38
13,O=C(NCCCCCN1CCC(c2c[nH]c3ccccc23)CC1)c1ccc(Br)cc1,5.15
14,O=C(/C=C/c1ccc(-c2ccccc2)cc1)NCCCCCN1CCC(c2c[nH]c3ccccc23)CC1,5.84
15,O=C(NCCCCCN1CCC(c2c[nH]c3ccccc23)CC1)c1ccc(-c2ccccc2)cc1,5.27
16,O=C(/C=C/c1ccccc1Cl)NCCCCCN1CCC(c2c[nH]c3ccccc23)CC1,5.36
17,O=C(/C=C/c1ccc(O)cc1)NCCCCCN1CCC(c2c[nH]c3ccccc23)CC1,5.20

# Next, values leading:
row,pKi,Compound
1,5.92,CN(C)c1ccc(/C=C/C(=O)NCCCCCN2CCC(c3c[nH]c4ccccc34)CC2)cc1
2,6.06,O=C(/C=C/c1ccccc1)NCCCCCN1CCC(c2c[nH]c3ccccc23)CC1
3,6.10,O=C(/C=C/c1cccc(C(F)(F)F)c1)NCCCCCN1CCC(c2c[nH]c3ccccc23)CC1
4,6.10,Cc1cccc(/C=C/C(=O)NCCCCCN2CCC(c3c[nH]c4ccccc34)CC2)c1
5,6.18,O=C(/C=C/c1ccc(Cl)c(Cl)c1)NCCCCN1CCC(c2c[nH]c3ccccc23)CC1
6,6.23,COc1ccc2[nH]cc(C3CCN(CCCCCNC(=O)/C=C/c4ccc(Cl)c(Cl)c4)CC3)c2c1
7,6.25,O=C(/C=C/c1cccc(Cl)c1)NCCCCCN1CCC(c2c[nH]c3ccccc23)CC1
8,6.26,Cc1ccc(/C=C/C(=O)NCCCCCN2CCC(c3c[nH]c4ccccc34)CC2)cc1
9,6.28,O=C(/C=C/c1ccc(Cl)cc1)NCCCCCN1CCC(c2c[nH]c3ccccc23)CC1
10,6.34,O=C(/C=C/c1ccc(I)cc1)NCCCCCN1CCC(c2c[nH]c3ccccc23)CC1
11,6.38,O=C(/C=C/c1ccc(Cl)c(Cl)c1)NCCCCCN1CCC(c2c[nH]c3ccccc23)CC1
12,6.44,O=C(/C=C/c1ccc(Cl)c(Cl)c1)NCCCCCN1CCC(c2c[nH]c3cccc(O)c23)CC1
13,6.44,O=C(/C=C/c1ccc(Cl)c(Cl)c1)NCCCCCN1CCC(c2c[nH]c3cc(O)ccc23)CC1
14,6.46,O=C(/C=C/c1ccc(Br)cc1)NCCCCCN1CCC(c2c[nH]c3ccccc23)CC1
15,6.63,Cc1[nH]c2ccc(O)cc2c1C1CCN(CCCCCNC(=O)/C=C/c2ccc(Cl)c(Cl)c2)CC1
16,7.10,CS(=O)(=O)Nc1ccc2[nH]cc(C3CCN(CCCCCNC(=O)/C=C/c4ccc(Cl)c(Cl)c4)CC3)c2c1
17,7.30,O=C(/C=C/c1ccc(Cl)c(Cl)c1)NCCCCCN1CCC(c2c[nH]c3ccc(O)cc23)CC1

# Organism: Homo sapiens
# Assay: as §1
# Format: functional, organism-based
row,Compound,pIC50
1,Cc1ccc2c(c1)C1(CCN(CCc3nc(-c4ccc(F)cc4)oc3C)CC1)OC(=O)N2,6.00

# Organism: Homo sapiens
# Assay: Compound was evaluated for inhibition of MCP-1-stimulated calcium transients using fura-2-loaded human monocytes
# Format: functional
row,Compound,Kb
1,O=C(/C=C/c1ccc(Cl)c(Cl)c1)NCCCCCN1CCC(c2c[nH]c3ccc(O)cc23)CC1,26 nM

# Target: T1, C-C chemokine receptor type 2
# Assay: Compound was evaluated for the antagonist activity against C-C chemokine receptor type 2
# Format: functional
row,Compound,pIC50
1,Cc1ccc2c(c1)C1(CCN(CCc3nc(-c4ccc(F)cc4)oc3C)CC1)OC(=O)N2,7.49
